Experimental data: PubChem BioAssay AID330 (DTP/NCI, 2004)
“And” between values parts separate entries of the source, which are not always exact repeats. Equal values may be shown once. Toxic doses and inconclusive results are not listed.

System: P388 leukemia ip, CD2F1 mice, survival T/C
Assay: NCI In Vivo Anticancer Drug Screen. Data for tumor model P388 Leukemia (intraperitoneal) in CD2F1 (CDF1) mice
Settings: endpoint: median survival time, higher = longer survival
Procedure, shortened: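 Mice carrying the transplanted tumor received test compound or vehicle. Survival was recorded in each group, and the value is the treated-group measurement divided by that of the vehicle-treated control group.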

[1] = dose: 50.0 mg/kg/injection, schedule: Q01DX009 (ip), vehicle: saline with Tween-80
[2] = dose: 100.0 mg/kg/injection, schedule: Q01DX009 (ip), vehicle: saline with Tween-80
[3] = dose: 200.0 mg/kg/injection, schedule: Q01DX009 (ip), vehicle: saline with Tween-80
[4] = dose: 50.0 mg/kg/injection, schedule: Q01DX005 (ip), vehicle: saline with Tween-80
[5] = dose: 100.0 mg/kg/injection, schedule: Q01DX005 (ip), vehicle: saline with Tween-80
[6] = dose: 200.0 mg/kg/injection, schedule: Q01DX005 (ip), vehicle: saline with Tween-80
[7] = dose: 12.5 mg/kg/injection, schedule: Q01DX005 (ip), vehicle: saline with Tween-80
[8] = dose: 100.0 mg/kg/injection, schedule: Q01DX001 (ip), vehicle: saline
[9] = dose: 60.0 mg/kg/injection, schedule: Q01DX005 (ip), vehicle: saline with Tween-80
[10] = dose: 120.0 mg/kg/injection, schedule: Q01DX005 (ip), vehicle: saline with Tween-80
[11] = dose: 240.0 mg/kg/injection, schedule: Q01DX005 (ip), vehicle: saline with Tween-80
[12] = dose: 25.0 mg/kg/injection, schedule: Q01DX009 (ip), vehicle: saline with Tween-80
[13] = dose: 100.0 mg/kg/injection, schedule: Q01DX009 (ip), vehicle: Klucel (hydroxypropylcellulose) (HPC)
[14] = dose: 200.0 mg/kg/injection, schedule: Q01DX009 (ip), vehicle: Klucel (hydroxypropylcellulose) (HPC)
[15] = dose: 400.0 mg/kg/injection, schedule: Q01DX009 (ip), vehicle: Klucel (hydroxypropylcellulose) (HPC)
[16] = dose: 50.0 mg/kg/injection, schedule: Q01DX005 (ip), vehicle: Klucel (hydroxypropylcellulose) (HPC)
[17] = dose: 100.0 mg/kg/injection, schedule: Q01DX005 (ip), vehicle: Klucel (hydroxypropylcellulose) (HPC)
[18] = dose: 200.0 mg/kg/injection, schedule: Q01DX005 (ip), vehicle: Klucel (hydroxypropylcellulose) (HPC)

## O=S(=O)(O)C(Nc1ccc(Cl)cc1)c1ccccc1 (configuration not stated)
[1]
  T/C: 100 % of control
[2]
  T/C: 105 % of control
[3]
  T/C: 114 % of control

## Clc1ccc2c(N3CCC(CCC4CCN(c5ncnc6cc(Cl)ccc56)CC4)CC3)ncnc2c1
[4]
  T/C: 96 % of control
[5]
  T/C: 94 % of control
[6]
  T/C: 88 % of control

## Nc1ncc2[nH]c(=O)[nH]c2n1
[4]
  T/C: 101 % of control
[5]
  T/C: 100 % of control
[6]
  T/C: 99 % of control

## CCOCCOc1nc(C)cc(C)c1C#N
[4]
  T/C: 102 % of control
[5]
  T/C: 105 % of control
[6]
  T/C: 96 % of control

## Cc1ccc(Nc2ncnc3c2c(=O)n(C)c(=O)n3C)cc1C
[7]
  T/C: 100 % of control
dose: 25.0 mg/kg/injection, schedule: Q01DX005 (ip), vehicle: saline with Tween-80
  T/C: 100 % of control
[4]
  T/C: 86 % of control and 91 % of control
[5]
  T/C: 88 % of control
[6]
  T/C: 96 % of control

## O=C1C=C(Cl)C(O)C1(Cl)Cl (configuration not stated)
dose: 6.25 mg/kg/injection, schedule: Q01DX009 (ip), vehicle: saline
  T/C: 94 % of control
dose: 12.5 mg/kg/injection, schedule: Q01DX009 (ip), vehicle: saline
  T/C: 92 % of control

## CCC1(C#N)N=C(c2ccccc2)c2ccccc2N1C(=O)Oc1ccccc1 (configuration not stated)
[4]
  T/C: 89 % of control
[5]
  T/C: 98 % of control
[6]
  T/C: 95 % of control

## CC(=O)Nc1ccc(N=NN(C)c2ccccc2)cc1
dose: 50.0 mg/kg/injection, schedule: Q01DX001 (ip), vehicle: saline
  T/C: 104 % of control
[8]
  T/C: 100 % of control

## COc1ccc(/C=C/C(=N/NC(=O)c2ccccc2)C(C)CN(C)C)cc1 (configuration not stated)
dose: 60.0 mg/kg/injection, schedule: Q01DX005 (ip), vehicle: Klucel (hydroxypropylcellulose) (HPC)
  T/C: 104 % of control
dose: 120.0 mg/kg/injection, schedule: Q01DX005 (ip), vehicle: Klucel (hydroxypropylcellulose) (HPC)
  T/C: 111 % of control

## CC(=O)[C@H]1CC[C@H]2[C@@H]3CCC4=CC(=O)C=C[C@]4(C)[C@H]3C(=O)C[C@]12C
[2]
  T/C: 100 % of control
[3]
  T/C: 100 % of control
dose: 400.0 mg/kg/injection, schedule: Q01DX009 (ip), vehicle: saline with Tween-80
  T/C: 100 % of control

## CC1[N-]CCCN(CCN(C)C)CCC[N-]C(C)C2CCCC1[N-]2.[Ni+3].[O-][Cl+3]([O-])([O-])O (configuration not stated)
[8]
  T/C: 106 % of control

## N#CC1CC(c2ccc([N+](=O)[O-])cc2)N(c2ccccc2)O1 (configuration not stated)
dose: 100.0 mg/kg/injection, schedule: Q01DX001 (ip), vehicle: saline with Tween-80
  T/C: 95 % of control
dose: 100.0 mg/kg/injection, schedule: Q04DX002 (ip), vehicle: saline with Tween-80
  T/C: 100 % of control and 104 % of control
dose: 200.0 mg/kg/injection, schedule: Q01DX001 (ip), vehicle: saline with Tween-80
  T/C: 94 % of control
dose: 200.0 mg/kg/injection, schedule: Q04DX002 (ip), vehicle: saline with Tween-80
  T/C: 95 % of control and 88 % of control
dose: 400.0 mg/kg/injection, schedule: Q01DX001 (ip), vehicle: saline with Tween-80
  T/C: 92 % of control
dose: 400.0 mg/kg/injection, schedule: Q04DX002 (ip), vehicle: saline with Tween-80
  T/C: 98 % of control and 90 % of control

## COc1cc(C(O)CCBr)c(OC)cc1C (configuration not stated)
[9]
  T/C: 100 % of control
[10]
  T/C: 100 % of control
[11]
  T/C: 95 % of control

## CCCCCN(CCCCC)CCCCC
[12]
  T/C: 86 % of control
[1]
  T/C: 98 % of control
[2]
  T/C: 101 % of control
[3]
  T/C: 88 % of control

## CC(=O)Nc1cc([N+]#N)ccc1S(=O)(=O)O
[1]
  T/C: 109 % of control
[2]
  T/C: 93 % of control
[3]
  T/C: 89 % of control

## O=C(O)CCC(=O)CCl
dose: 3.13 mg/kg/injection, schedule: Q01DX009 (ip), vehicle: saline
  T/C: 109 % of control
dose: 25.0 mg/kg/injection, schedule: Q04DX003 (ip), vehicle: saline with Tween-80
  T/C: 104 % of control
dose: 50.0 mg/kg/injection, schedule: Q04DX003 (ip), vehicle: saline with Tween-80
  T/C: 108 % of control

## O=C=Nc1ccc(Cc2ccc(N=C=O)cc2)cc1
[13]
  T/C: 103 % of control
[14]
  T/C: 98 % of control
[15]
  T/C: 93 % of control

## CCSC1(SCC)C(=O)OC2=C(CCCCC2)C1N(C)c1ccccc1 (configuration not stated)
dose: 12.5 mg/kg/injection, schedule: Q01DX009 (ip), vehicle: saline with Tween-80
  T/C: 93 % of control
[12]
  T/C: 99 % of control
[1]
  T/C: 99 % of control

## O=C(CCN1CCCCC1)Nc1ccc(F)c(Cl)c1
[4]
  T/C: 93 % of control
[5]
  T/C: 102 % of control
[6]
  T/C: 93 % of control

## CCCCC(NC(=O)C(C)N)C(=O)O (configuration not stated)
dose: 50.0 mg/kg/injection, schedule: Q01DX009 (ip), vehicle: Klucel (hydroxypropylcellulose) (HPC)
  T/C: 98 % of control
[13]
  T/C: 98 % of control
[14]
  T/C: 95 % of control
[15]
  T/C: 101 % of control

## CCN(CC)CCNc1ccc(COC(=O)OC)c2sc3ccccc3c(=O)c12
dose: 2.5 mg/kg/injection, schedule: Q01DX005 (ip), vehicle: saline with Tween-80
  T/C: 118 % of control
dose: 5.0 mg/kg/injection, schedule: Q01DX005 (ip), vehicle: saline with Tween-80
  T/C: 124 % of control
dose: 6.25 mg/kg/injection, schedule: Q01DX005 (ip), vehicle: saline with Tween-80
  T/C: 120 % of control
dose: 10.0 mg/kg/injection, schedule: Q01DX005 (ip), vehicle: saline with Tween-80
  T/C: 124 % of control
[7]
  T/C: 111 % of control
dose: 20.0 mg/kg/injection, schedule: Q01DX005 (ip), vehicle: saline with Tween-80
  T/C: 122 % of control

## COC1SCCn2c1nc1ccccc1c2=O (configuration not stated)
[9]
  T/C: 107 % of control
[10]
  T/C: 98 % of control
[11]
  T/C: 99 % of control

## C/C=C/c1ccc(OC(C)C(=O)c2ccc(OC)c(OC)c2)c(OC)c1 (configuration not stated)
dose: 10.0 mg/kg/injection, schedule: Q01DX005 (ip), vehicle: Klucel (hydroxypropylcellulose) (HPC)
  T/C: 97 % of control
dose: 20.0 mg/kg/injection, schedule: Q01DX005 (ip), vehicle: Klucel (hydroxypropylcellulose) (HPC)
  T/C: 100 % of control
dose: 40.0 mg/kg/injection, schedule: Q01DX005 (ip), vehicle: Klucel (hydroxypropylcellulose) (HPC)
  T/C: 99 % of control

## C/C(=N\N/C=N/S(=O)(=O)c1ccccc1)c1ccccc1
[16]
  T/C: 88 % of control
[17]
  T/C: 89 % of control
[18]
  T/C: 89 % of control

## CCCNc1cc(C)cc2[nH]c(C)nc12
dose: 25.0 mg/kg/injection, schedule: Q01DX005 (ip), vehicle: Klucel (hydroxypropylcellulose) (HPC)
  T/C: 103 % of control
[16]
  T/C: 100 % of control
[17]
  T/C: 103 % of control
[18]
  T/C: 94 % of control

## CCCCCCCC(=O)N/N=C(\CO)[C@]1(O)Cc2c(O)c3c(c(O)c2[C@@H](OC2CC(N)C(O)C(C)O2)C1)C(=O)c1c(OC)cccc1C3=O (some centres not stated)
dose: 1.25 mg/kg/injection, schedule: Q04DX003 (ip), vehicle: water
  T/C: 109 % of control
dose: 2.5 mg/kg/injection, schedule: Q04DX003 (ip), vehicle: water
  T/C: 109 % of control
dose: 5.0 mg/kg/injection, schedule: Q04DX003 (ip), vehicle: water
  T/C: 107 % of control
dose: 10.0 mg/kg/injection, schedule: Q04DX003 (ip), vehicle: water
  T/C: 119 % of control and 121 % of control
dose: 20.0 mg/kg/injection, schedule: Q04DX003 (ip), vehicle: water
  T/C: 123 % of control
dose: 80.0 mg/kg/injection, schedule: Q04DX003 (ip), vehicle: water
  T/C: 179 % of control

## Nc1nc(-c2cc(-c3cccc([N+](=O)[O-])c3Cl)nc(N)n2)cc(-c2cccc([N+](=O)[O-])c2Cl)n1
[9]
  T/C: 105 % of control
[10]
  T/C: 101 % of control
[11]
  T/C: 100 % of control

## C=CCC(O)C(=O)OC1CC(C)CCC1C(C)(C)c1ccccc1 (configuration not stated)
[9]
  T/C: 106 % of control
[10]
  T/C: 100 % of control
[11]
  T/C: 107 % of control

## COC(=O)C#CCO
dose: 6.25 mg/kg/injection, schedule: Q01DX009 (ip), vehicle: water
  T/C: 103 % of control
dose: 12.5 mg/kg/injection, schedule: Q01DX009 (ip), vehicle: water
  T/C: 112 % of control and 94 % of control
dose: 25.0 mg/kg/injection, schedule: Q01DX009 (ip), vehicle: water
  T/C: 112 % of control and 120 % of control
dose: 50.0 mg/kg/injection, schedule: Q01DX009 (ip), vehicle: water
  T/C: 112 % of control and 122 % of control
